Series [1] concerns the target Tyrosine-protein kinase BTK (Mus musculus, UniProt P35991). Briefly: Inhibition of C57BL/6J mouse BTK assessed as decrease in anti-mouse IgM antibody stimulated BCR mediated CD69 upregulation preincubated for 30 mins followed by antibody challenge after 18 to 24 hrs by flow cytometry. (In flow cytometry, cells or beads pass a laser one at a time.)
Series [2] can be described thus: Metabolic stability in rat liver microsomes assessed as metabolism rate. The format is ADME, microsome.
A short description of series [3]: Metabolic stability in human liver microsomes assessed as metabolism rate. The class given is ADME, microsome. (Liver microsomes are a subcellular fraction often used to study metabolism.)
The nature of series [4]: Metabolic stability in mouse liver microsomes assessed as metabolism rate. The format is ADME, microsome.
In series [5] the target is Tyrosine-protein kinase BTK (Homo sapiens, UniProt Q06187). Briefly: Inhibition of recombinant human full length BTK preincubated for 10 mins followed by Tk-biotin peptide substrate addition after 90 mins by TR-FRET assay. (Time-resolved FRET reads energy transfer from a long-lived donor to a nearby acceptor.)
Chain of Tyrosine-protein kinase BTK (Homo sapiens, UniProt Q06187) (Q06187 whole entry): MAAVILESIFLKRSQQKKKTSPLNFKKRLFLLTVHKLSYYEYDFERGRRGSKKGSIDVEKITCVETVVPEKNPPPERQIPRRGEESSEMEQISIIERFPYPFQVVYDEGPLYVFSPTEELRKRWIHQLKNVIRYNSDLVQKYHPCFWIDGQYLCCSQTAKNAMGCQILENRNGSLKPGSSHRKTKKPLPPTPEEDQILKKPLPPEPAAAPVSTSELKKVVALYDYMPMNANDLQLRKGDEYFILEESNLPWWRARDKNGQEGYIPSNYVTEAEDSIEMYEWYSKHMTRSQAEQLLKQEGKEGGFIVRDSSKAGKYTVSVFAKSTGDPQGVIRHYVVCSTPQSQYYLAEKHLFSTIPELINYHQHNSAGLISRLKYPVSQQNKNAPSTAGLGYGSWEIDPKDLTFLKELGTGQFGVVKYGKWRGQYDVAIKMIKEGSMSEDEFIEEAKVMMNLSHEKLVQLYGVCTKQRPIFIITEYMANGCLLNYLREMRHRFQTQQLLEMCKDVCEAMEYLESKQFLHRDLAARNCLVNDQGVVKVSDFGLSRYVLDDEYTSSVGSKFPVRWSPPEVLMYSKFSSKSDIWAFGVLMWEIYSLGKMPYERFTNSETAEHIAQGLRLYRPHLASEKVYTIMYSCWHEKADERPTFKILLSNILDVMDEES
Series [6] is described as follows: Equilibrium aqueous solubility of the compound at pH 4. The class given is physicochemical.
The nature of series [7]: Equilibrium aqueous solubility of the compound at pH 7.4. The class given is physicochemical.

Chain of Tyrosine-protein kinase BTK (Mus musculus, UniProt P35991) (P35991 whole entry): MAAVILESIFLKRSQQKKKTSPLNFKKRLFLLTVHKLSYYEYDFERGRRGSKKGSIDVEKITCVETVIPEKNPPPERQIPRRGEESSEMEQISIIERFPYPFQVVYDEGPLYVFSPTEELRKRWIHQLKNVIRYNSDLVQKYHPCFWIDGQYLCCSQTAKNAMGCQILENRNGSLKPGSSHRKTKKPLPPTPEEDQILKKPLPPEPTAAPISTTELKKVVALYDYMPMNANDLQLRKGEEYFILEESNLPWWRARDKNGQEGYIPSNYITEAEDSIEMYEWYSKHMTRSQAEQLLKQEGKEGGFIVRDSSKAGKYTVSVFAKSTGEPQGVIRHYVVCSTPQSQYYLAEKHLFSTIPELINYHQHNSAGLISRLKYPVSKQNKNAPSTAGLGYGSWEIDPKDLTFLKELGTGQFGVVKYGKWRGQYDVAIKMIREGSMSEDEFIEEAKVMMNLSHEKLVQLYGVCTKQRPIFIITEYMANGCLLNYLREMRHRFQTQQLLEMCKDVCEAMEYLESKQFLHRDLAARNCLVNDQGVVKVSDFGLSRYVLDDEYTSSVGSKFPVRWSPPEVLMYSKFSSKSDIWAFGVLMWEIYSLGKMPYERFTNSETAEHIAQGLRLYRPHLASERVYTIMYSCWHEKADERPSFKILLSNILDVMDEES

The IC50 is the midpoint of a concentration-inhibition curve. Take `CN1CCN(c2ccc(-c3cc4c(-c5cccc(N6CCOc7cc(C8CC8)ccc7C6=O)c5CO)ncnc4[nH]3)cc2)CC1`: in series [1], the IC50 amounted to 36 nM.

Regarding `CN(C)C(=O)N1CC=C(c2cc3c(-c4cccc(N5CCOc6cc(C7CC7)cc(F)c6C5=O)c4CO)ccnc3[nH]2)CC1`, the Drug metabolism in series [2], in series [3] and in series [4] was 0.05 nmol/min/mg throughout. In series [1], the IC50 is 5.8 nM.

Take `CN1CCN(Cc2ccc(-c3cc4c(-c5cccc(N6CCOc7cc(C8CC8)cc(F)c7C6=O)c5CO)ccnc4[nH]3)nc2)CC1`: the figures for the Drug metabolism in series [2], in series [3] and in series [4] were 0.15 nmol/min/mg, < 0.04 nmol/min/mg and 0.06 nmol/min/mg, respectively. In series [1], the half-maximal inhibitory concentration (IC50) worked out at 5.5 nM.

Take `O=C1c2ccc(C3CC3)cc2OCCN1c1cccc(-c2ncnc3[nH]c(-c4ccc(CN5CCOCC5)cc4)cc23)c1CO`: the IC50 turned out to be 8.3 nM in series [5] and 59 nM in series [1].

Take `CN1CCN(Cc2ccc(-c3cc4c(-c5cccc(N6CCOc7cc(C8CC8)ccc7C6=O)c5CO)ccnc4[nH]3)nc2)CC1`: the IC50 was determined as 5.4 nM in series [5] and 14 nM in series [1].

As for `CN1CCC(Oc2ccc(-c3cc4c(-c5cccc(N6CCOc7cc(C8CC8)ccc7C6=O)c5CO)ncnc4[nH]3)cc2)CC1`, the IC50 in series [5] was 2.6 nM; in series [1], 51 nM.

On to `CN1CCC(n2cc(-c3cc4c(-c5cccc(N6CCOc7cc(C8CC8)ccc7C6=O)c5CO)ncnc4[nH]3)cn2)CC1`, for which the IC50 in series [1] worked out at 32 nM.

Turning to `CS(=O)(=O)N1CC=C(c2cc3c(-c4cccc(N5CCOc6cc(C7CC7)cc(F)c6C5=O)c4CO)ccnc3[nH]2)CC1`, the Drug metabolism in series [2] is 0.05 nmol/min/mg; in series [3], 0.07 nmol/min/mg; in series [4] it was 0.09 nmol/min/mg. The concentration for half-maximal inhibition (IC50) came to 5.5 nM in series [5] and 17.7 nM in series [1].

Consider `CC1(O)CCN(Cc2ccc(-c3cc4c(-c5cccc(N6CCOc7cc(C8CC8)ccc7C6=O)c5CO)ncnc4[nH]3)cc2)CC1`, for which the figures for the concentration for half-maximal inhibition (IC50) in series [5] and in series [1] were 6.8 nM and 81 nM, respectively.

`CC1(O)CN(C(=O)N2CC=C(c3cc4c(-c5cccc(N6CCOc7cc(C8CC8)cc(F)c7C6=O)c5CO)ccnc4[nH]3)CC2)C1`: the Drug metabolism was 0.04 nmol/min/mg in series [2], < 0.04 nmol/min/mg in series [3] and 0.04 nmol/min/mg in series [4]. Moreover, the half-maximal inhibitory concentration (IC50) in series [5] was 1.1 nM; in series [1], 14.7 nM.

Regarding `CN1CCN(Cc2ccc(-c3cc4c(-c5cccc(N6CCOc7cc(C8CC8)ccc7C6=O)c5CO)ncnc4[nH]3)cc2)CC1`, the half-inhibitory concentration (IC50) turned out to be 6.5 nM in series [5] and 48 nM in series [1].

As for `N#CCC(=O)N1CC=C(c2cc3c(-c4cccc(N5CCOc6cc(C7CC7)cc(F)c6C5=O)c4CO)ccnc3[nH]2)CC1`, the Drug metabolism in series [2] was < 0.04 nmol/min/mg; in series [3], 0.07 nmol/min/mg; in series [4], < 0.04 nmol/min/mg. For the same molecule, in series [1], the IC50 is 51.2 nM.

Usually thermodynamic solubility stands for solubility found after equilibrating the solid with the medium. `O=C1c2c(F)cc(C3CC3)cc2OCCN1c1cccc(-c2ccnc3[nH]c(-c4cnn(C5CCN(C6COC6)CC5)c4)cc23)c1CO`: the Drug metabolism in series [2] is recorded as < 0.04 nmol/min/mg; in series [3], 0.05 nmol/min/mg; in series [4] it was 0.1 nmol/min/mg. The solubility (thermodynamic) was < 100 µM in series [6] and < 20 µM in series [7]. Moreover, the half-inhibitory concentration (IC50) in series [1] worked out at 8.3 nM.

As for `CN1CC(Oc2ccc(-c3cc4c(-c5cccc(N6CCOc7cc(C8CC8)ccc7C6=O)c5CO)ncnc4[nH]3)cc2)C1`, the concentration for half-maximal inhibition (IC50) worked out at 5.1 nM in series [5] and 54 nM in series [1].

Regarding `Cc1c(-c2ncnc3[nH]c(-c4ccc(CN5CCN(C)CC5)cc4)cc23)cccc1N1CCOc2cc(C3CC3)ccc2C1=O`, the concentration for half-maximal inhibition (IC50) in series [5] was found to be 21 nM.

As to `CC(C)(O)CN1CC=C(c2cc3c(-c4cccc(N5CCOc6cc(C7CC7)cc(F)c6C5=O)c4CO)ccnc3[nH]2)CC1`, the Drug metabolism was determined as 0.09 nmol/min/mg in series [2], 0.04 nmol/min/mg in series [3] and 0.1 nmol/min/mg in series [4]. For the same molecule, the figures for the thermodynamic solubility in series [6] and in series [7] were < 100 µM and < 20 µM, respectively. Moreover, the IC50 in series [1] came out at 75 nM.

Values taken from ChEMBL document CHEMBL4177534, “Discovery and evaluation of 1H-pyrrolo[2,3-b]pyridine based selective and reversible small molecule BTK inhibitors for the treatment of rheumatoid arthritis” (Bioorg Med Chem Lett, 2017).
